# Experimental data from patent US9096524B2, “Anthelmintic agents and their use” (Intervet International B.V., priority 2009, dated 2015).
# System: A. galli (intestinal roundworm of chicken) larval stage 3; O. dentatum (nodular worm of swine) larval stages 3 and 4
# Test: Activity against Ascaridia galli and Oesophagostomum dentatum larvae in vitro (minimum effective concentration)
# Assay type: cell-based
# Details: in vitro; one or more of A. galli L3, O. dentatum L3, L4; threshold 1 μM; read-out: MEC (minimum effective concentration) against one or more of the tested nematodes
row,Structure (SMILES),minimal effective concentration [µM]
1,O=C(CCCN1CCN(c2ccc(Cl)cc2)CC1)N1CC[C@@H](Nc2ccc([N+](=O)[O-])c(C(F)(F)F)c2)C1 [Example 792],< 1
2,O=C(CCN1CCN(c2ccc(Cl)cn2)CC1)N1CC[C@@H](Nc2ccc([N+](=O)[O-])c(C(F)(F)F)c2)C1 [Example 795],< 1
3,O=C(CCN1CCCN(c2ccc(Cl)cc2)CC1)N1CC[C@@H](Nc2ccc([N+](=O)[O-])c(C(F)(F)F)c2)C1 [Example 799],< 1
4,N#Cc1ccc(N2CCCN(C(=O)CCCN3CCN(c4ccc(C(F)(F)F)cc4)CC3)CC2)cc1C(F)(F)F [Example 1008],< 1
5,CC(C)(C)c1ccc(N2CCN(CCCC(=O)N3CCCN(c4ccc(C#N)c(C(F)(F)F)c4)CC3)CC2)cc1 [Example 1010],< 1
6,O=C(CCCN1CCN(c2ccc(C(F)(F)F)cc2)CC1)N1CCCN(c2ccc(C(F)(F)F)cn2)CC1 [Example 1014],< 1
7,O=C(CCN1CCN(c2ccc(C(F)(F)F)cc2)CC1)N1CCCN(c2ccc(SC(F)(F)F)cc2)CC1 [Example 1017],< 1
8,CC(C)(C)c1ccc(N2CCN(CCC(=O)N3CCCN(c4ccc(SC(F)(F)F)cc4)CC3)CC2)cc1 [Example 1019],< 1
9,COc1ccc(N2CCN(CCC(=O)N3CCCN(c4ccc(SC(F)(F)F)cc4)CC3)CC2)cc1 [Example 1020],< 1
10,O=C(CCCN1CCN(c2ccc(C(F)(F)F)cc2)CC1)N1CCCN(c2ccc(SC(F)(F)F)cc2)CC1 [Example 1027],< 1
11,O=C(CCCN1CCN(c2ccc(Cl)cc2)CC1)N1CCCN(c2ccc(SC(F)(F)F)cc2)CC1 [Example 1028],< 1

# Same assay, conditions: in vitro; one or more of A. galli L3, O. dentatum L3, L4; threshold 7 μM; read-out: MEC (minimum effective concentration) against one or more of the tested nematodes
row,Structure (SMILES),minimal effective concentration [µM]
1,O=C(CCN1CCN(c2ccc(C(F)(F)F)cc2)CC1)N1CCCN(c2ccc([N+](=O)[O-])c(C(F)(F)F)c2)CC1 [Example 997],< 7
2,CC(C)(C)c1ccc(N2CCN(CCC(=O)N3CCCN(c4ccc([N+](=O)[O-])c(C(F)(F)F)c4)CC3)CC2)cc1 [Example 998],< 7
3,O=C(CCCN1CCN(c2ccc(C(F)(F)F)cc2)CC1)N1CCCN(c2ccc([N+](=O)[O-])c(C(F)(F)F)c2)CC1 [Example 1001],< 7
4,CC(C)(C)c1ccc(N2CCN(CCCC(=O)N3CCCN(c4ccc([N+](=O)[O-])c(C(F)(F)F)c4)CC3)CC2)cc1 [Example 1003],< 7

# Same assay, conditions: in vitro; two or more of A. galli L3, O. dentatum L3, L4; threshold 1 μM; read-out: MEC (minimum effective concentration) against two or more of the tested nematodes
row,Structure (SMILES),minimal effective concentration [µM]
1,O=C(CCCN1CCN(c2ccc(C(F)(F)F)cc2)CC1)N1CCN(c2ccc(SC(F)(F)F)cc2)CC1 [Example 1033],< 1

# System: Haemonchus contortus
# Test: Efficacy against Haemonchus contortus in jirds
# Assay type: in vivo, jirds (Meriones unguiculatus)
# Details: po, 72 h, read-out: % Reduction in H.
# Protocol: Anthelmintic effects of compounds of this invention were tested in vivo using Haemonchus contuortus in jirds (Meriones unguiculatus). The jirds were orally infected with approximately 750-3,000 third-stage larvae of Haemonchus contortus. Ten days after infection, the jirds in the treatment groups were treated once orally or subcutaneously at a dose of 2, 10, and/or 50 mg per kg bodyweight. Three days after treatment, the jirds were necropsied, and the larvae burden in the stomach is determined. The efficacy is defined as the reduction of the mean larvae count in the jirds of the treatment groups in comparison to the infected jirds in the untreated negative control group.
Structure (SMILES),inhibition in vivo at 50 mg/kg [%],inhibition in vivo at 10 mg/kg [%]
"O=C(CCN1CCN(c2ccc(OCc3ccccc3)cc2)CC1)N1CCC(Oc2ccc([N+](=O)[O-])c(C(F)(F)F)c2)CC1 [Example 58, 3-[4-(4-benzyloxy-phenyl)-piperazin-1-yl]-1-[4-(4-nitro-3-trifluoromethyl-phenoxy)-piperidin-1-yl]-propan-1-one]",0,–
"O=C(CCCN1CCN(c2ccc(C(F)(F)F)cc2)CC1)N1CCC(Nc2ccc([N+](=O)[O-])c(C(F)(F)F)c2)CC1 [Example 89, 1-[4-(4-nitro-3-trifluoromethyl-phenylamino)-piperidin-1-yl]-4-[4-(4-trifluoromethyl-phenyl)-piperazin-1-yl]-butan-1-one]",–,99
"CC(C)(C)c1ccc(N2CCN(CCCC(=O)N3CCC(Nc4ccc([N+](=O)[O-])c(C(F)(F)F)c4)CC3)CC2)cc1 [Example 90, 4-[4-(4-tert-butyl-phenyl)-piperazin-1-yl]-1-[4-(4-nitro-3-trifluoromethyl-phenylamino)-piperidin-1-yl]-butan-1-one]",–,46

# Same assay, conditions: sc, 72 h, read-out: % Reduction in H.
Structure (SMILES),inhibition in vivo at 50 mg/kg [%],inhibition in vivo at 10 mg/kg [%]
"O=C(CCN1CCN(c2ccc(OCc3ccccc3)cc2)CC1)N1CCC(Oc2ccc([N+](=O)[O-])c(C(F)(F)F)c2)CC1 [Example 58, 3-[4-(4-benzyloxy-phenyl)-piperazin-1-yl]-1-[4-(4-nitro-3-trifluoromethyl-phenoxy)-piperidin-1-yl]-propan-1-one]",59,–
"O=C(CCCN1CCN(c2ccc(C(F)(F)F)cc2)CC1)N1CCC(Nc2ccc([N+](=O)[O-])c(C(F)(F)F)c2)CC1 [Example 89, 1-[4-(4-nitro-3-trifluoromethyl-phenylamino)-piperidin-1-yl]-4-[4-(4-trifluoromethyl-phenyl)-piperazin-1-yl]-butan-1-one]",–,98
"CC(C)(C)c1ccc(N2CCN(CCCC(=O)N3CCC(Nc4ccc([N+](=O)[O-])c(C(F)(F)F)c4)CC3)CC2)cc1 [Example 90, 4-[4-(4-tert-butyl-phenyl)-piperazin-1-yl]-1-[4-(4-nitro-3-trifluoromethyl-phenylamino)-piperidin-1-yl]-butan-1-one]",–,42
